Key:
[1] = molecular target: binding between Nrf2 and Keap1 (Homo sapiens (Human), UniProt Q14145); assay: FP assay (in vitro): inhibition of Nrf2-Keap1 binding by fluorescence polarization; conditions: GST-fused human Keap1 (325-642) 20 nM, FITC-labeled Nrf2 peptide 10 nM, 2 hr at room temperature
[2] = Measurement test of plasma drug concentration after oral administration in rats; type: in vivo; conditions: male SD rats, 10 mg/2 mL/kg in 0.5% methylcellulose; for AUC(0-t): rat, plasma, 10 mg/kg, read-out: AUC0-24
Protocol: 10 mg/2 mL/kg of the test compound suspended in 0.5% methylcellulose solution were force-fed to Male SD rats (7 weeks old, Japan SLC). Blood was collected from the jugular vein using a syringe with heparin at 0.5, 1, 2, 4, 6, and 24 hr after administration. After blood collection, to 20 μL of centrifuged plasma was added an equal volume of acetonitrile followed by 200 μL of internal standard (IS) solution. After agitation, all the supernatant after centrifugation was filtered, and the collected filtrate was used as the assay sample. Equal volumes of the test compound solution prepared in acetonitrile were added to blank plasma, and the samples processed in the same manner as above were used as samples for the calibration curve. The prepared samples were measured using LC/MS/MS, and the area under the blood concentration-time curve (AUC) was calculated from the compound concentration in plasma.

[3] = test system: NQO1 activity in Hepa1c1c7 cells; assay: NAD(P)H: quinone oxidoreductase-1 (NQO1) enzyme induction assay (in vitro); type: cell-based, mouse; conditions: Mus musculus, Hepa-1c1c7, NQO1 activity with 400 nM test compound as a ratio from the base without compound, about 48 hr
In short: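 Mouse Hepa1c1c7 hepatoma cells treated 48 hr with 400 nM compound (final). NQO1 activity in lysates read by absorbance at 610 nm; value is background-subtracted activity ratio versus untreated cells.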

Chain of binding between Nrf2 and Keap1 (Q14145 325-624 limits assumed): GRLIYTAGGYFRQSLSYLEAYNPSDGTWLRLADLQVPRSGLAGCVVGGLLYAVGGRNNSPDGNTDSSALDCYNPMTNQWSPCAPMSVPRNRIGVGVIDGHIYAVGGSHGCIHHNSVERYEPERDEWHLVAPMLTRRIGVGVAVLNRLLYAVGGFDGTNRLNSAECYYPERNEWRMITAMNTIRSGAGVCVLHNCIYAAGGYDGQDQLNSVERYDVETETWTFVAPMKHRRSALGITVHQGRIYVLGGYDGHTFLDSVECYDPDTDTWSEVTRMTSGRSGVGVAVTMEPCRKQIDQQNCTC

IC50 [1] | maximam plasma concentration [2] | AUC(0-t) [2] | Compound | fold induction at 0.4 µM [3]
≤ 10 nM | 0.029 µM | 0.05 µM·h | CC[C@@H]1CN(Cc2cc([C@H](CC(=O)O)c3ccc4c(nnn4C)c3C)cc3c2CCC3)S(=O)(=O)c2cc(Cl)cnc2O1 [Example 4, (3S)-3-(7-{[(4R)-8-Chloro-4-ethyl-1,1-dioxido-3,4-dihydro-2H-pyrido[2,3-b][1,4,5]oxathiazepin-2-yl]methyl}-2,3-dihydro-1H-inden-5-yl)-3-(1,4-dimethyl-1H-benzotriazol-5-yl)propanoic acid] | > 5
10 to 30 nM | 0.006 µM | 0.035 µM·h | CC[C@@H]1CN(Cc2cc([C@@H](CC(=O)O)c3ccc4c(nnn4C)c3C)cc3c2CCC3)S(=O)(=O)c2cc(Cl)cnc2O1 [Example 5, (3R)-3-(7-{[(4R)-8-Chloro-4-ethyl-1,1-dioxido-3,4-dihydro-2H-pyrido[2,3-b][1,4,5]oxathiazepin-2-yl]methyl}-2,3-dihydro-1H-inden-5-yl)-3-(1,4-dimethyl-1H-benzotriazol-5-yl)propanoic acid] | > 5
≤ 10 nM | 0.009 µM | 0.03 µM·h | CC[C@@H]1CN(Cc2cc([C@H](CC(=O)O)c3ccc4c(nnn4C)c3C)cc3ccsc23)S(=O)(=O)c2cc(Cl)cnc2O1 [Example 7, (3S)-3-(7-{[(4R)-8-Chloro-4-ethyl-1,1-dioxido-3,4-dihydro-2H-pyrido[2,3-b][1,4,5]oxathiazepin-2-yl]methyl}-1-benzothiophen-5-yl)-3-(1,4-dimethyl-1H-benzotriazol-5-yl)propanoic acid] | > 5
≤ 10 nM | 0.005 µM | 0.023 µM·h | CC[C@@H]1CN(Cc2cc([C@@H](CC(=O)O)c3ccc4c(nnn4C)c3C)cc3ccsc23)S(=O)(=O)c2cc(Cl)cnc2O1 [Example 8, (3R)-3-(7-{[(4R)-8-Chloro-4-ethyl-1,1-dioxido-3,4-dihydro-2H-pyrido[2,3-b][1,4,5]oxathiazepin-2-yl]methyl}-1-benzothiophen-5-yl)-3-(1,4-dimethyl-1H-benzotriazol-5-yl)propanoic acid] | > 5
10 to 30 nM |  |  | CC[C@@H]1CN(Cc2cc([C@@H](CC(=O)O)c3cc(C4CC4)c4c(nnn4C)c3C)cc3c2CCC3)[C@@H](C)c2ncccc2O1 [Example 105, (3R)-3-(7-Cyclopropyl-1,4-dimethyl-1H-benzotriazol-5-yl)-3-(7-{[(2R,5S)-2-ethyl-5-methyl-2,3-dihydropyrido[2,3-f][1,4]oxazepin-4(5H)-yl]methyl}-2,3-dihydro-1H-inden-5-yl)propanoic acid] | > 5
≤ 10 nM |  |  | CC[C@@H]1CN(Cc2cc([C@H](CC(=O)O)c3cc(C4CC4)c4c(nnn4C)c3C)cc3c2CCC3)[C@@H](C)c2ncccc2O1 [Example 106, (3S)-3-(7-Cyclopropyl-1,4-dimethyl-1H-benzotriazol-5-yl)-3-(7-{[(2R,5S)-2-ethyl-5-methyl-2,3-dihydropyrido[2,3-f][1,4]oxazepin-4(5H)-yl]methyl}-2,3-dihydro-1H-inden-5-yl)propanoic acid] | > 5
10 to 30 nM |  |  | CC[C@@H]1CN(Cc2cc(C(CC(=O)O)c3cc(C4CC4)c4c(nnn4C)c3C)cc3c2OCC3)[C@@H](C)c2ncccc2O1 (stereo partly drawn) [Example 107, 3-(7-Cyclopropyl-1,4-dimethyl-1H-benzotriazol-5-yl)-3-(7-{[(2R,5S)-2-ethyl-5-methyl-2,3-dihydropyrido[2,3-f][1,4]oxazepin-4(5H)-yl]methyl}-2,3-dihydro-1-benzofuran-5-yl)propanoic acid] | > 5
30 to 100 nM |  |  | CC[C@@H]1CN(Cc2cc([C@H](CC(=O)O)c3cc(OC(F)F)c4c(nnn4C)c3C)cc3ccsc23)S(=O)(=O)c2cc(Cl)cnc2O1 [Example 108, (3S)-3-(7-{[(4R)-8-Chloro-4-ethyl-1,1-dioxido-3,4-dihydro-2H-pyrido[2,3-b][1,4,5]oxathiazepin-2-yl]methyl}-1-benzothiophen-5-yl)-3-[7-(difluoromethoxy)-1,4-dimethyl-1H-benzotriazol-5-yl]propanoic acid] | > 5
30 to 100 nM |  |  | CC[C@@H]1CN(Cc2cc(C(CC(=O)O)c3cc(C4CC4)c4c(nnn4C)c3C)cc3ccoc23)[C@@H](C)c2ncccc2O1 (stereo partly drawn) [Example 109, 3-(7-Cyclopropyl-1,4-dimethyl-1H-benzotriazol-5-yl)-3-(7-{[(2R,5S)-2-ethyl-5-methyl-2,3-dihydropyrido[2,3-f][1,4]oxazepin-4(5H)-yl]methyl}-1-benzofuran-5-yl)propanoic acid] | > 5
30 to 100 nM |  |  | CC[C@@H]1CN(Cc2cc(C(CC(=O)O)c3cc(C4CC4)c4c(nnn4C)c3C)cc3ccoc23)S(=O)(=O)c2cc(Cl)cnc2O1 (stereo partly drawn) [Example 110, 3-(7-{[(4R)-8-Chloro-4-ethyl-1,1-dioxido-3,4-dihydro-2H-pyrido[2,3-b][1,4,5]oxathiazepin-2-yl]methyl}-1-benzofuran-5-yl)-3-(7-cyclopropyl-1,4-dimethyl-1H-benzotriazol-5-yl)propanoic acid] | > 5
≤ 10 nM |  |  | CCOc1ccc2c(n1)O[C@H](CC)CN(Cc1cc([C@H](CC(=O)O)c3ccc4c(nnn4C)c3C)cc3ccsc13)S2(=O)=O [Example 111, (3S)-3-(1,4-Dimethyl-1H-benzotriazol-5-yl)-3-(7-{[(4R)-7-ethoxy-4-ethyl-1,1-dioxido-3,4-dihydro-2H-pyrido[2,3-b][1,4,5]oxathiazepin-2-yl]methyl}-1-benzothiophen-5-yl)propanoic acid] | 3 to 5
≤ 10 nM |  |  | CCOc1ccc2c(n1)O[C@H](CC)CN(Cc1cc([C@@H](CC(=O)O)c3ccc4c(nnn4C)c3C)cc3ccsc13)S2(=O)=O [Example 112, (3R)-3-(1,4-Dimethyl-1H-benzotriazol-5-yl)-3-(7-{[(4R)-7-ethoxy-4-ethyl-1,1-dioxido-3,4-dihydro-2H-pyrido[2,3-b][1,4,5]oxathiazepin-2-yl]methyl}-1-benzothiophen-5-yl)propanoic acid] | 3 to 5
